Reference: ChEMBL document CHEMBL3507680, “University of Dundee, Gates Library screen for HepG2 cell viability”

Experiment: Human HepG2 cell viability assay in 384 well format
Assay type: toxicity, cell-based
Design: dose 125 nL, time 70.5 hour; cytotoxicity at 70.5 h: concentration not given beside the values
Settings: HepG2 cells, read-out: Inhibition

SMILES | cytotoxicity at 70.5 h
C=C(C)COc1cccc(C(=O)N2CCC(O)(c3ccccc3)CC2)c1 | 7.64%
COCCn1ccc(NC(=O)Nc2ccc(C)cc2)n1 | -5.81%
CS(=O)(=O)N1CCC2(CC1)CN(CC1CCOC1)c1ccccc12 (stereo unspecified) | 5.41%
CCCn1nc(C)c(CN(CCN(C)C)Cc2ccccn2)c1C | 12.9%
Cc1cccc(CNC(=O)Nc2ccn(CCCC(=O)N(C)C)n2)c1 | -7.9%
Cc1ncsc1-c1nnc(C2CCN(Cc3cccc(F)c3F)CC2)o1 | 38.7%
COCc1cc(CNC(=O)c2c(O)cccc2O)n[nH]1 | -1.82%
O=C(Cc1ccccc1Cl)N1CCCC(n2cncn2)C1 (stereo unspecified) | -7.27%
CC(C(=O)Nc1nccs1)N(C)Cc1cccc(C#N)c1 (stereo unspecified) | -11.6%
CCNC(=O)CN(CC)C(=O)Cc1csc(C(C)C)n1 | -1.29%
O=C(c1cnccn1)N1CCN2C[C@H](Oc3cccc(F)c3)C[C@H]2C1 | -2.2%
Cn1cc2c(n1)C(COCC1CC1)CN(Cc1ccsc1)C2 (stereo unspecified) | -3.4%
Cc1nc2nc(C)c3c(=O)n(-c4ccn[nH]4)ccc3n2n1 | 10.9%
Cc1nc(C)c(C(=O)Nc2ccc(-c3nnc(N(C)C)o3)cc2)o1 | -4.93%
CCC(CNC(=O)Nc1cnn(CC)c1)N1CCCC1 (stereo unspecified) | -3.1%
Cc1c[nH]nc1C1CN(c2cnccn2)CCO1 (stereo unspecified) | -4.52%
Cc1cnn(C2CCCN(C(=O)c3cn(-c4ccccc4)nc3C)C2)c1 (stereo unspecified) | -6.2%
CN1CCN(S(=O)(=O)c2cccc(F)c2)c2cnccc21 | -2.79%
CCc1ccc(S(=O)(=O)N2Cc3c(CN(C)C)nn(C)c3C2)cc1 | -5.86%

SMILES | cytotoxicity at 70.5 h
CCc1nc(C2CCCN2C(=O)c2ccc3c(c2)nc(C)n3C)no1 (stereo unspecified) | -8.32%
CCCN1CCC=C(C2c3nc[nH]c3CCN2C(=O)c2ccco2)C1 (stereo unspecified) | 22.4%
O=C(CCNC1(c2nccs2)CCCC1)N1CCOCC1 | 7.56%
COCCN1CCN(CCS(=O)(=O)c2cccc(OC)c2)CC1 | -2.71%
C[C@]12CCCCN(C(=O)c3ccccn3)[C@H]1CCCC(=O)N2 | 5.15%
Cn1cncc1CN1CCc2nc3sccc3c(=O)n2CC1 | -19.1%
O=C(CN1CCCC(O)C1)NC(=O)NCc1cccs1 (stereo unspecified) | -8.04%
NC(=O)CCN1CCC(C(=O)c2cc(F)ccc2F)CC1 | 15%
CC(=O)N1Cc2ccccc2C[C@H]1C(=O)Nc1ccccn1 | -12%
Cc1nc(C)n(C2CCCN(C(=O)c3cscn3)C2)n1 (stereo unspecified) | -2.85%
O=C(NCc1cnn2cccnc12)c1cccc(CC2CCNCC2)c1 | 5.06%
CN1CCOC(CNCc2coc(-c3ccccc3)n2)C1 (stereo unspecified) | -0.149%
CN1CCN(C2CCN(C(=O)CCC3CCCC3)CC2)CC1 | -6.88%
CN(C(=O)COC1CCCCC1)C1CCN(CC2CCOC2)CC1 (stereo unspecified) | -1.92%
COc1cccc2c1OCC(NCCc1cnn(-c3ccccc3)c1)C2 (stereo unspecified) | -8.4%
CCOC(=O)N[C@H]1C[C@@H](C(=O)NCCc2cccc(Cl)c2)N(C)C1 | -23.6%
Cc1cnn(CC2CCCN2C(=O)c2ccc(Cl)cc2F)c1 (stereo unspecified) | -1.79%
COCCNC(=O)[C@H]1C[C@@H]2CCN(c3ncccn3)C[C@H]2O1 | -1.44%
O=C(O)c1csc(S(=O)(=O)Nc2cccc(OC(F)F)c2)c1 | -12.7%

SMILES | cytotoxicity at 70.5 h
Cc1cc(C)c2c(c1)C(CC(=O)O)C(=O)N2 (stereo unspecified) | 24.2%
O=C(NCc1ccoc1)NC1CCCN(c2ncccn2)C1 (stereo unspecified) | -4.3%
CCCc1nc(N2CCCCCC2)c2c(n1)c(C)nn2CC | -11.6%
CNc1cc(N2CCCC2CNCc2csc(C)n2)ncn1 (stereo unspecified) | 6.11%
Cn1cc(C2CC(=O)NC23CCN(Cc2cccc(F)c2)CC3)cn1 (stereo unspecified) | -0.799%
OC(CN1CCC(CNCc2ccccn2)CC1)c1ccccc1 (stereo unspecified) | 1.35%
Cc1cc(NC(=O)Cc2ccccc2O)c[nH]c1=O | -13.3%
COCCCN1CCCC12CCN(Cc1cccnc1OC)CC2 | 1.58%
Cc1noc(C)c1CN1CC[C@@H]2O[C@@H](COCC(C)C)CC[C@@H]21 | 3.11%
CN(C)C(=O)c1cccc(C2CCN(c3ncccn3)CC2)n1 | -4.03%
Cc1cnn(CC2CCCN2Cc2c(C)noc2C)c1 (stereo unspecified) | -3.04%
O=C(NCc1ccccn1)NCC(c1ccco1)N1CCCC1 (stereo unspecified) | -1.51%
Cc1ccccc1OCCCC(=O)NC(C)c1nnc2n1CCC2 (stereo unspecified) | -2.09%
Cc1cccc(CN2CCc3c(CNC(=O)CC#N)nn(C)c3C2)n1 | -0.367%
O=C(Cc1ccc(O)cc1)N1CCCC(O)(CN2CCOCC2)CC1 (stereo unspecified) | -7.8%
CCn1cnnc1CNC(=O)N1CCN(CC(C)C)CC1 | -1.52%
CN1CCC(c2n[nH]c(=O)n2-c2cccc(Cl)c2)CC1 | 10.8%
COc1ccc(-c2cn[nH]c2)cc1CNC1CCCC1 | -19.5%
